What was measured:
[1] = tested on: ERK1 and ERK2 activation in differentiated HL60 cells; test: fMLP-induced ERK1 and ERK2 activation in differentiated HL60 cells; assay type: cell-based, human; conditions: 10 μM compound, 1 μM fMLP; result in words
Method: (§1) Cells were pretreated with DMSO or 10 μM compounds for 5 min prior to stimulation with 250 nM fMLP. […] Normalized peak Ca^2+ responses were pooled from three independent experiments each (mean±SEM). Cells were pretreated with DMSO (▪) or compounds (▴) for 5 min prior to stimulation. FIG. 5C is the same as A except 10 μM M201 was tested. […] Differentiated HL60 cells were treated with 10 μM compound prior to stimulation with 250 nM fMLP. Translocation of endogenous GRK2 was determined by Western blotting with a GRK2 antibody and quantitative chemiluminescence. Data are mean±SEM from 5 experiments, * P<0.05, **P<0.01 ANOVA. […] Differentiated HL60 cells stably over-expressing GFP-PHAkt were treated with 10 μM compound prior to stimulation with 100 nM fMLP. Translocation of GFP-PHAkt to the membrane was determined by Western blotting with an anti-GFP antibody and quantitative chemiluminescence. Data are mean±SEM from 4 experiments. *** P<0.001 ANOVA. […] Differentiated HL60 cells were pretreated with 10 μM of compound prior to stimulation with 1 μM fMLP for 5 min. Levels of phosphorylated and total ERK were determined by Western blotting.

[2] = tested on: fMLP-dependent Ca2+ release in differentiated HL60 cells; test: fMLP-dependent Ca2+ release in fura-2 loaded DMSO-differentiated HL60 cells; assay type: cell-based, human; conditions: 10 μM compound, 250 nM fMLP; result in words
Method: as §1
Ca^2+ fluxes were measured using two 35 mL cultures of differentiated HL-60 neutrophil cultures (0.2×10^6 cells/mL). Cells were cultured for three days with in DMSO
(1.2%), washed in HSS and resuspended in 2 mL HBSS at a concentration of 7×10^s cells/mL. Addition of DMSO to the growth medium induces differentiation of these cells into morphologically and functionally mature neutrophils
(Collins, et al. (1978) Proc. Natl. Acad. Sci. USA 75:2458; Collins, et al. (1979) J. Exp. Med. 149:969). Neutrophils were preloaded with fura-2 (1 μM), a fluorescent Ca^2+-sensitive indicator (Suh, et al. (1996) J. Biol. Chem. 271:32753), for 45 minutes, washed with HBSS and resuspended in 2 mL of indicator-free HBSS. An 140 μL aliquote of cells was added to a total of 2 mL HBSS. Fluorescence ratios were taken by dual excitation at 340 and 380 nm and emission at 510 nm. After a stable baseline was established, either DMSO or NSC119910 was added and incubated for 5 minutes. […]

Fαi1GDPβ1γ2 heterotrimer = biological target: T1, Fαi1GDPβ1γ2 heterotrimer (UniProt P54311+P63212); test: Dissociation of Fαi1 from preformed Fαi1β1γ2 heterotrimer (flow cytometry); assay type: binding; conditions: result in words
T1 construct: made in house; host or cells: b-βγ: Sf9 insect cells
Method: Assays were used to determine peptide effects on Gα-Gβγ interactions included competition and dissociation assays (Ghosh, et al. (2003) supra). […] To measure dissociation of Fan from b-Gβaγ2, 100 pM of Fa^ was incubated with 50 pM immobilized b-Gβ1γ2 at room temperature for 15-20 minutes. The fluorescence of bound Fαii subunit was measured, followed by the addition of a 200-fold excess of unlabeled Gcx±x or peptides and the amount of Fan remaining bound to the beads was measured at the indicated times.
The ability of peptides to dissociate a preformed hetero-trimer was assessed by comparing the rates of Fαi1 dissociation from Fαi1β1γ2 with excess unlabeled αi1 competitor (intrinsic dissocia-tion rate) and in the presence of a saturating concentration of peptide.

PLCβ2 = conditions: Scott, et al. (2001); read-out: IC50 for inhibition of PLC β2 activation by Gβ1γ2; cited from earlier work
[3] = tested on: human δ opioid receptor (hDOR-CHO cells); test: Total inositol phosphate assay in hDOR-CHO cells; assay type: cell-based; conditions: DPDPE, Deltorphin II, M119 10 μM; naltrindole 100 μM; result in words
Method: (§2) Chinese hamster ovary (CHO) cells stably expressing either the human κ (hKOR-CHO), δ (hDOR-CHO)(L. Toll, Stanford Research Institute, Palo Alto, Calif.) or μ (hMOR-CHO)(G. Uhl, National Institute on Drug Abuse, Baltimore, Md.) opioid receptor were used in the experiments. Cells in 6-well plates were labeled by adding 4 μCi of [^3H]inositol for 24 hr in inositol-free F-10 media, without serum. After labeling, LiCl was added directly to the labeling media at a final concentration of 10 mM. Ligands or peptides were added at the same time. The final volume of each well was 1 mL. The plates were put back in to the incubator at 37° C. for 30 min after which time the medium was aspirated and the plates were washed twice with 1× PBS. Ice-cold 50 mM formic acid, 1 mL, was added to the plates which were placed in the cold room at 4° C. for 30 min. After the incubation, the contents of the plates were applied to Dowex AG1-X8 columns and allowed to flow all the way through the column. The columns were washed, twice each, with 50 and 100 mM formic acid, for a total of four washes, followed by elution of the IP-containing fraction with 3 mL of 1.2 M ammonium formate/0.1 M formic acid. The eluted fraction was mixed with Scintisafe scintillation fluid, for high salt, and counted. The data are represented as the fold increase over control in total inositol phospates. All experiments were repeated three times and performed in duplicate. Control cells for each experiment were labeled with [^3H]inositol and LiCl, in the same manner as the treatment groups.

[4] = tested on: human μ opioid receptor (hMOR-CHO cells); test: Total inositol phosphate assay in hMOR-CHO cells; assay type: cell-based
Method: as §2

[5] = tested on: opioid-induced antinociception in mice; test: 55° C. warm-water tail-flick antinociception; assay type: in vivo, mouse; conditions: i.c.v., 20 min, 55° C. tail-flick; 95% CL in parentheses

T1 sequence (P54311 whole entry): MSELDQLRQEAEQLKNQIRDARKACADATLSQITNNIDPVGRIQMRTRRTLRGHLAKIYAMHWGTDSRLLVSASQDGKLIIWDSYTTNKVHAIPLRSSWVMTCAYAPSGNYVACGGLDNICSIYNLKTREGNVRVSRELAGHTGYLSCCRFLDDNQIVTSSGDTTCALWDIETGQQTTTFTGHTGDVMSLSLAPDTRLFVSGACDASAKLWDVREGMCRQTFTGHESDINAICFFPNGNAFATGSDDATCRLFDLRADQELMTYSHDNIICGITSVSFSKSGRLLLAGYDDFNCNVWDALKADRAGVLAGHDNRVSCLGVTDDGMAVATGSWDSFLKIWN
T1 sequence (P63212 2-68 limits assumed): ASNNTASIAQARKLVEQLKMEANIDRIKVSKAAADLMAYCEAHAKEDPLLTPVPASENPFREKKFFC

Compound: O=C(O)c1cccc2cccc(-c3c4ccc(=O)c(O)c-4oc4c(O)c(O)ccc34)c12 [Compound M119K]
- effect on fMLP-induced activation of ERK1 and ERK2 [1]: without interfering
- effect on fMLP-induced Ca^2+ increase [2]: block

Compound: CC[C@H](C)[C@H](NC(=O)[C@H](CC(N)=O)NC(=O)[C@H](CC(C)C)NC(=O)[C@H](C)NC(=O)[C@H](CCCCN)NC(=O)[C@H](CCCNC(=N)N)NC(=O)[C@@H](NC(=O)[C@@H](N)CO)[C@@H](C)CC)C(=O)N[C@@H](CC(C)C)C(=O)NCC(=O)N[C@@H](Cc1ccc(O)cc1)C(=O)N1CCC[C@H]1C(=O)N[C@@H](CC(=O)O)C(=O)N[C@@H](Cc1ccc(O)cc1)C(=O)N[C@@H](CC(=O)O)C(=O)O [SIRK]
- promotion/acceleration of heterotrimer dissociation (Fαi1GDPβ1γ2 heterotrimer): promotes dissociation
- IC50 (PLCβ2): 5 µM

Compound: Oc1ccc2c3c1O[C@H]1c4[nH]c5ccccc5c4C[C@@]4(O)[C@@H](C2)N(CC2CC2)CC[C@]314 [naltrindole]
- effect on IP generation over control treated cells [3]: no significant effect

Compound: [D-Pen^2,D-Pen^5]enkephalin [DPDPE]
- effect on IP generation over control treated cells [3]: neither DPDPE (10 μM) (FIG. 15C) nor Deltorphin II (10 μM) (FIG. 15D) significantly increased IP generation
- effect of compound by itself on IP production [4]: no effect
- ED50 of opioid agonist alone [5]: 6.5 nmol

From patent US8975259B2, “Compositions and methods for inhibiting G protein signaling” (University of Rochester, priority 2007, dated 2015)
